Source: US20140050778A1, “NUCLEIC ACID BINDING COMPOUNDS, METHODS OF MAKING, AND USE THEREOF” (UNIVERSITY OF ROCHESTER, priority 2010, published 2014)
Entries after “also recorded” stand apart in the source; their conditions may differ.

Experiments:
[1] = molecular target: (CUG)10 RNA (SEQ ID NO: 3); assay: SPR binding to immobilized biotinylated RNA
Protocol: (§1) SPR binding measurements were performed on a Biacore-X instrument (Biacore, Inc., Uppsala, Sweden) with two flow channels (FC1 and FC2). 5′-Biotinylated-RNA sequences, with a C6 linker separating the biotin label from the RNA (Integrated DNA Technologies Inc.) were immobilized on streptavidin (Rockland Immunochemicals) functionalized carboxylmethyl dextran coated sensor chips (CM5, G.E. Healthcare) using EDC/NHS (Advanced ChemTech) coupling chemistry. Filtered (0.2μ), degassed and autoclaved HBS-N buffer (0.01M Hepes, pH=7.4, 0.15 M NaCl) was employed as sample and as running buffer for all SPR experiments. A typical protocol for an experiment is as follows: A CM5 sensor chip was allowed to equilibrate to room temperature and then docked into the instrument. Following priming with running buffer, FC1 and FC2 were conditioned by manual injection of 20 μL aqueous NaOH (50 mM) at a flow rate of 30 μL/min. This was repeated 3 times followed by a wash command. Next, the carboxyl groups on the sensor chip surface in both flow cells were activated separately by injecting 60 μL of freshly prepared 1:1 mixture of EDC (0.4 M) and NHS (0.1 M) at a 5 μL/min flow rate followed by a wash. […] After washing, the surface was deactivated with 60 μL injection of ethanolamine (1M, pH=8.5) at 5 μL/min. The flow cells were primed, and the streptavidin surface in FC1 alone was blocked with 30 μL of biotin (20 μM in HBS-N) at 5 μL/min. The RNA (200 nM in running buffer, HBS-N) to be immobilized was unfolded by heating above its predicted melting temperature in a heated block for 2 min and then allowed to refold by cooling gradually to room temperature. The RNA was then immobilized in FC2 alone to response units ranging from 200-1000 RU using a 5 μL/min flow rate. Representative sensorgrams for the immobilization procedure is shown in FIGS. 2A-B. Two 20 μL aliquots of NaCl (0.5 M) were injected at a 30 μL/min flow rate to remove non-specifically bound RNA. The level of RNA immobilized was noted when the baseline was stable, usually after repeated buffer injection followed by a “prime” command. Binding measurements were performed by flowing various concentrations of the compounds to be analyzed over the immobilized RNA and recording the reference-subtracted (FC2−FC1) sensorgrams. For kinetic analysis, at least five sensorgrams corresponding to different concentrations of compound (usually ranging from 0.05-1 μM in HBS-N) were obtained using flow rates of either 60 μL/min or 30 μL/min. The experimental sensorgrams were globally fitted to a 1:1 binding equation (Biaevaluation software) to obtain association rates (ka) and dissociation rates ([…]) as well as equilibrium binding constants (KD). To measure the binding stoichiometry (n), the relations in equations (1-3) below were used: […]
(§2) where RUmax is the maximum resonance response unit at saturation, RURNA is the amount RU of RNA immobilized, n is the stoichiometry, MWcompound and MWRNA are molecular weights of compound and RNA respectively, and RUeq represents the resonance response at steady-state (equilibrium). The response units at equilibrium were subjected to Scatchard binding plots of (r/Cfree vs. r).
This technique allows the association and dissociation rates (ka and kd), equilibrium binding constants (KD), and the binding stoichiometry (n) to be measured in a label-free format (Liu and Wilson, “Quantitative Analysis of Small Molecule-nucleic Acid Interactions with a Biosensor Surface and Surface Plasmon Resonance Detection,” Methods Mol. Biol. 613:1-23 (2010), which is hereby incorporated by reference in its entirety).

[2] = molecular target: (CUG)10 RNA; assay: Fluorescence titration (benzo[g]quinoline quenching); type: binding; details: (CUG)10, 1 μM compound in HBS-N
Protocol: The benzo[g]quinoline moiety is fluorescent, with excitation and emission maxima at 362 nm and 439 nm respectively in methanol. Fluorescence titration binding measurements were performed on a Cary Eclipse fluorescence spectrophotometer using a 10 mm path-length semimicro quartz fluorescence cell with 400 μL sample holding capacity. Absorbance measurements were carried out on a UV-Visible spectrophotometer (Shimadzu, UV-1601PC) using a 1 mL (1 cm path-length) quartz cell. Spectroscopic grade anhydrous methanol used in the measurement of relative quantum yield of the 2-ethyl benzo[g]quinoline carboxylic acid was purchased from Alfa Aesar and was used without further purification. For these measurements, known procedures were used (Lee and Grissom, “Design, Synthesis, and Characterization of Fluorescent Cobalamin Analogues with High Quantum Efficiencies,” Org. Lett. 11:2499-2502 (2009); Joseph R. Lakowicz, Principles of Fluorescence Spectroscopy, 2nd edition (Kluwer Academic/Plenum Publishers, 1999), which are hereby incorporated by reference in their entirety). Briefly, RNA (10 μM stock) in HBS-N buffer was titrated into a solution of 1 μM compound in HBS-N. After each addition of RNA, ten minutes were allowed for equilibration before recording the change in fluorescence at 468.5 nm. Fluorescence units (“FU”) were then corrected for dilution and the FU after each addition was subtracted from the FU at zero RNA concentration to give AFU. Following saturation, AFU was plotted against RNA concentration using Origin 7 (OriginLab, Inc.), and fitted to a 1:1 Langmuir binding model to obtain apparent dissociation constants (Kn). […]
Selected equilibrium affinities for (CUG)10 were confirmed by fluorescence titration. The quantum yield of the ethylbenzo[g]quinoline carboxylic acid (compound 2), relative to quinine sulfate, was determined to be 0.64 (FIGS. 5A-F). […] Apparent KD values measured in this manner are consistent with those obtained by SPR (Table 6); that they are not identical to SPR-measured values likely results from the differing formats of the two methods. […]

[3] = system: HIV-1 FSS RNA (SEQ ID NO: 7); assay: SPR binding to immobilized biotinylated RNA
Protocol: as §1
as §2, with “r). […]” for “r).”
SPR and fluorescence titration experiments, performed using the protocol described in Examples 3 and 4 above, except using as the target a highly conserved RNA sequence responsible for regulating the production of the Gag-Pol polyprotein via a −1 ribosomal frameshift, which occurs along a “slippery sequence” in gag-pol mRNA (SEQ ID NO: 7). This “frameshift stimulatory sequence” (or “HIV-1 FSS”) consists of an upper stemloop and a lower stem, separated by a purine bulge in the most common types of HIV (FIG. 19). For the fluorescent titration experiments, the upper stemloop of SEQ ID NO: 7 was employed. Cell uptake and toxicity studies were carried out using human fibroblasts according to Example 5 above.

[4] = system: CUG-CAG duplex ("Duplex") (SEQ ID NO: 6); assay: SPR binding to immobilized biotinylated RNA; details: Duplex
Protocol: as §1, §2
(§3) The binding characteristics of compounds 3-11 were evaluated against pathogenic CUG^exp RNA and other RNA sequences by SPR. This technique allows the association and dissociation rates (ka and kd), equilibrium binding constants (KD), and the binding stoichiometry (n) to be measured in a label-free format (Liu and Wilson, “Quantitative Analysis of Small Molecule-nucleic Acid Interactions with a Biosensor Surface and Surface Plasmon Resonance Detection,” Methods Mol. Biol. 613:1-23 (2010), which is hereby incorporated by reference in its entirety). […]

[5] = system: (CCUG)10 RNA (SEQ ID NO: 4); assay: SPR binding to immobilized biotinylated RNA; details: (CCUG)10
Protocol: as §1, §2, §3

[6] = system: (CAG)10 RNA (SEQ ID NO: 5); assay: SPR binding to immobilized biotinylated RNA
Protocol: as §1, §2, §3

[7] = system: mouse C2C12 myoblasts; assay: Cell permeability by fluorescence microscopy; type: cell-based; details: 12 h, 125 μM, intrinsic fluorescence
Protocol: For cell permeability studies, human fibroblasts or mouse myoblasts grown to 80% confluence were exposed to compounds for 12 hours in a 96 well tissue culture plate. After removal of the culture media (DMEM, with 10% FBS, 1% pen-strep (GIBCO)) the cells were washed twice with PBS to remove excess compounds. Cells were then imaged while in buffer under a fluorescence microscope (Olympus IX70) in the 96-well plate using a 460 nm emission filter.

[8] = system: HSA^LR transgenic mice; assay: MBNL1-dependent splicing in mouse myotonic dystrophy model (RT-PCR, vastus muscle); type: in vivo; details: 40 mg/kg intraperitoneally once per day for 5 days
Protocol: Mouse handling and experimental procedures were conducted in accordance with the Association for Assessment and Accreditation of Laboratory Animal Care. […] Age- and gender-matched HSA^LR mice (12-16 weeks old) were injected intraperitoneally with 40 mg/kg of compounds or saline alone once per day for 5 days. Mice were sacrificed one day after the last injection, and vastus muscle was obtained for splicing analysis. RNA extraction, cDNA preparation, and RT-PCR were performed as described previously. The PCR products were electrophoresed on agarose gels for separation, and scanned with a laser fluorimager (Typhoon, GE Healthcare). Quantitative analysis of amplified products was performed by ImageQuant software (Molecular Dynamics). Differences between two groups were evaluated by unpaired Student's t-test. A critical test of a compound's performance is its ability to function in vivo. DM1 has several well-studied mouse models (Gomes-Pereira et al., “Myotonic Dystrophy Mouse Models: Towards Rational Therapy Development,” Trends Mol. Med. 17:506-517 (2011), which is hereby incorporated by reference in its entirety). Compound activity in the HSA^LR mouse model, in which transgenic mice carry a long CTG repeat inserted into the human skeletal actin (HSA) gene in skeletal muscle (Mankodi, “Myotonic Dystrophy in Transgenic Mice Expressing an Expanded CUG Repeat,” Science 289:1769-1772 (2000), which is hereby incorporated by reference in its entirety) was examined. […] They also display aberrant splicing of genes, including Clcn1 and Atp2a1, which are hallmarks of nuclear transcript sequestration.

C=CC[C@H](NC(=O)[C@@H]1CCCN1C(=O)c1cc2cc3ccccc3cc2nc1CC)C(=O)N[C@@H](CCCCN)C(=O)NCCCN [Compound 3]
apparent KD ([1]; SPR, (CUG)10): no measurable affinity; also recorded: complete lack of binding | apparent KD [2]: No binding

CCc1nc2cc3ccccc3cc2cc1C(=O)N[C@@H](CCCCN)C(=O)N[C@@H](C/C=C/C[C@H](NC(=O)[C@H](CCCCN)NC(=O)c1cc2cc3ccccc3cc2nc1CC)C(=O)N1CCC[C@H]1C(=O)NCCCN)C(=O)N1CCC[C@H]1C(=O)NCCCN [Compound 9]
Residence time (t1/2) for compound binding to RNA [3]: 5.775 min | Off-rates (koff) ([3]; SPR): 0.002 s⁻¹ | On-rates (kon) ([3]; SPR): 32300 M⁻¹ s⁻¹ | Residence time (t1/2) for compound binding to RNA [4]: 6.2097 min | Off-rates (koff) ([4]; SPR): 0.00186 s⁻¹ | On-rates (kon) ([4]; SPR): 24300 M⁻¹ s⁻¹ | Residence time (t1/2) for compound binding to RNA [5]: 4.262 min | Off-rates (koff) ([5]; SPR): 0.00271 s⁻¹ | On-rates (kon) ([5]; SPR): 19900 M⁻¹ s⁻¹ | Residence time (t1/2) for compound binding to RNA [6]: 3.3575 min | Off-rates (koff) ([6]; SPR): 0.00344 s⁻¹ | On-rates (kon) ([6]; SPR): 15700 M⁻¹ s⁻¹ | Residence time (t1/2) for compound binding to RNA ([1]; (CUG)10): 4.0527 min | Off-rates (koff) ([1]; SPR, (CUG)10): 0.00285 s⁻¹ | On-rates (kon) ([1]; SPR, (CUG)10): 24200 M⁻¹ s⁻¹ | apparent KD ([1]; SPR, (CUG)10): reduced affinity | sequence selectivity ([1]; SPR, CUG repeats versus other RNAs): no selectivity for CUG or CCUG repeats relative to duplex CUG-CAG or HIV-1 FSS RNAs | cell membrane penetration / localization [7]: significantly less able to enter cells than compounds 4, 5, or 11 | improvement of Clcn1 splicing [8]: not
